Data as given in US8354433B2, “Anti-inflammatory agents as virostatic compounds” (4SC AG, priority 2009, dated 2013).
Read-outs that look alike come from different tables or passages of the source.

Experiments:
[1] = target: dihydroorotate dehydrogenase (DHODH) (Homo sapiens, UniProt Q02127); assay: DHODH inhibition, in vitro assay; format: biochemical
HIV-191US005 = assay: Anti-HIV efficacy in fresh human PBMCs (RT activity and p24 ELISA); format: cell-based, HIV-1; settings: Human immunodeficiency virus 1, PBMC, 168 h; for EC50: read-out: EC50/nM; for EC90: read-out: EC90/nM
[2] = system: HCV subgenomic replicon of genotype 1b; assay: microbe, parasite or virus in culture; format: cell-based; settings: Hepatitis C virus, 24 h, read-out: Antiviral Activity EC50/nM
human PBMCs = assay: MTS cytotoxicity in human PBMCs; settings: seven days
[3] = system: ET cell line (luc-ubi-neo/ET), Huh7; assay: CytoTox-1 cytotoxicity in ET cells; settings: 24 h, cell unit μM
[4] = Table 2, read-out: DHODH IC50/nM

Chain of dihydroorotate dehydrogenase (DHODH) (Q02127 whole entry): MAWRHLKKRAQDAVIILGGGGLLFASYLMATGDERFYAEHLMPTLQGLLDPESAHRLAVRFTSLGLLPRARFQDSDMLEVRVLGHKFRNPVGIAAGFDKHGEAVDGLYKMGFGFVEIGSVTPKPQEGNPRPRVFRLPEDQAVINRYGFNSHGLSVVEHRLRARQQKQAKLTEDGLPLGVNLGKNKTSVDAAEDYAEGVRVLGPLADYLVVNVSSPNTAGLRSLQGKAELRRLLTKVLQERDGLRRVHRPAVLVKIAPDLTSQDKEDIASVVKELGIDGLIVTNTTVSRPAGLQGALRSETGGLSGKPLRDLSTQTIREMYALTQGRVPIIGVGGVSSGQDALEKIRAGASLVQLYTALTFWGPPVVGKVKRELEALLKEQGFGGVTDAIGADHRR

Row | Compound | IC50 ([1]; DHODH IC50/nM, Table 1) [nM] | IC50 [1, 4] [nM] | EC50 (HIV-191US005; Endpoint RT, seven days) [nM] | EC90 (HIV-191US005; Endpoint RT, seven days) [nM] | EC50 (HIV-191US005; Endpoint p24, seven days) [nM] | EC90 (HIV-191US005; Endpoint p24, seven days) [nM] | EC50 [2] [nM] | TC50/nM (human PBMCs) [nM] | TC50 [3] [µM]
1 | O=C(O)C1=C(C(=O)Nc2c(F)cc(-c3ccccc3Cl)cc2F)CSC1 [Compound 2, 4-(2′-Chloro-3,5-difluoro-biphenyl-4-ylcarbamoyl)-2,5-dihydro-thiophene-3-carboxylic acid] | < 20 | < 20 | 920 | 2590 | 1380 | 2770 | 680 | >100000 | >100
2 | O=C(O)C1=C(C(=O)Nc2ccc(OCc3c(F)cccc3Cl)c(F)c2)CCC1 [Compound 21, 2-[4-(2-Chloro-6-fluoro-benzyloxy)-3-fluoro-phenylcarbamoyl]-cyclopent-1-enecarboxylic acid] | – | 20 to 200 | – | – | – | – | 1740 | – | >30
3 | O=C(O)C1=C(C(=O)Nc2cc(Cl)c(OCc3c(F)cccc3Cl)c(Cl)c2)CCC1 [Compound 22, 2-[3,5-Dichloro-4-(2-chloro-6-fluoro-benzyloxy)-phenylcarbamoyl]-cyclopent-1-enecarboxylic acid] | – | 20 to 200 | – | – | – | – | 1760 | – | >30
